Laboratory results taken from PubChem BioAssay AID330 (DTP/NCI, 2004).
“And” between values parts separate entries of the source, which are not always exact repeats. Equal values may be shown once. Toxic doses and inconclusive results are not listed.

Test system: P388 leukemia ip, CD2F1 mice, survival T/C
Assay: NCI In Vivo Anticancer Drug Screen. Data for tumor model P388 Leukemia (intraperitoneal) in CD2F1 (CDF1) mice
Conditions: endpoint: median survival time, higher = longer survival
Method in brief: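 Mice carrying the transplanted tumor received test compound or vehicle. Survival was recorded in each group, and the value is the treated-group measurement divided by that of the vehicle-treated control group.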

[1] = dose: 50.0 mg/kg/injection, schedule: Q01DX005 (ip), vehicle: Klucel (hydroxypropylcellulose) (HPC)
[2] = dose: 100.0 mg/kg/injection, schedule: Q01DX005 (ip), vehicle: Klucel (hydroxypropylcellulose) (HPC)
[3] = dose: 200.0 mg/kg/injection, schedule: Q01DX005 (ip), vehicle: Klucel (hydroxypropylcellulose) (HPC)
[4] = dose: 60.0 mg/kg/injection, schedule: Q01DX005 (ip), vehicle: saline with Tween-80
[5] = dose: 120.0 mg/kg/injection, schedule: Q01DX005 (ip), vehicle: saline with Tween-80
[6] = dose: 240.0 mg/kg/injection, schedule: Q01DX005 (ip), vehicle: saline with Tween-80
[7] = dose: 60.0 mg/kg/injection, schedule: Q01DX005 (ip), vehicle: Klucel (hydroxypropylcellulose) (HPC)
[8] = dose: 120.0 mg/kg/injection, schedule: Q01DX005 (ip), vehicle: Klucel (hydroxypropylcellulose) (HPC)
[9] = dose: 240.0 mg/kg/injection, schedule: Q01DX005 (ip), vehicle: Klucel (hydroxypropylcellulose) (HPC)
[10] = dose: 12.5 mg/kg/injection, schedule: Q01DX005 (ip), vehicle: saline with Tween-80
[11] = dose: 25.0 mg/kg/injection, schedule: Q01DX005 (ip), vehicle: saline with Tween-80
[12] = dose: 50.0 mg/kg/injection, schedule: Q01DX005 (ip), vehicle: saline with Tween-80

Compound: O=C(NC(Cc1cnc[nH]1)C(=O)O)c1ccccc1 (stereo not drawn)
- T/C (dose: 50.0 mg/kg/injection, schedule: Q01DX009 (ip), vehicle: saline with Tween-80): 92 % of control
- T/C (dose: 100.0 mg/kg/injection, schedule: Q01DX009 (ip), vehicle: saline with Tween-80): 98 % of control
- T/C (dose: 200.0 mg/kg/injection, schedule: Q01DX009 (ip), vehicle: saline with Tween-80): 98 % of control

Compound: OCC(O)c1c(-c2ccccc2)c(-c2ccccc2)c2n1CCC2 (stereo not drawn)
- T/C [1]: 96 % of control
- T/C [2]: 93 % of control
- T/C [3]: 92 % of control

Compound: C=CCCCN1C(=O)CCCC1=O
- T/C [4]: 100 % of control
- T/C [5]: 101 % of control
- T/C [6]: 101 % of control

Compound: COc1ccc(/C(O)=C/c2nc3ccc(Cl)cc3[nH]c2=O)cc1
- T/C [7]: 101 % of control
- T/C [8]: 99 % of control
- T/C [9]: 91 % of control

Compound: Cc1cc2c(=O)c(C(=O)O)c[nH]c2cc1-n1cccc1
- T/C [4]: 97 % of control
- T/C [5]: 100 % of control
- T/C [6]: 102 % of control

Compound: CCCCCCCC(C)c1cc(N)c(C)cc1[N+](=O)[O-] (stereo not drawn)
- T/C (dose: 25.0 mg/kg/injection, schedule: Q04DX002 (ip), vehicle: Klucel (hydroxypropylcellulose) (HPC)): 98 % of control
- T/C (dose: 50.0 mg/kg/injection, schedule: Q04DX002 (ip), vehicle: Klucel (hydroxypropylcellulose) (HPC)): 89 % of control

Compound: Cc1c(N=Nc2cccc(F)c2)c(-c2ccccc2)nn1C(N)=S
- T/C [10]: 95 % of control
- T/C [11]: 95 % of control
- T/C [12]: 101 % of control

Compound: O=C1c2ccccc2C2(O)C3C=CCCN3CN12 (stereo not drawn)
- T/C [1]: 101 % of control
- T/C [2]: 100 % of control
- T/C [3]: 100 % of control

Compound: C=C1C(=O)OC2CC3(C)OC3CC/C(C)=C/C(OC(C)=O)C12 (stereo not drawn)
- T/C [10]: 111 % of control
- T/C [11]: 111 % of control
- T/C [12]: 111 % of control and 112 % of control

Compound: CCC[CH2][Sn]1([CH2]CCC)[O]C(=O)CC[S]1
- T/C (dose: 3.13 mg/kg/injection, schedule: Q01DX005 (ip), vehicle: saline with Tween-80): 121 % of control
- T/C (dose: 6.25 mg/kg/injection, schedule: Q01DX005 (ip), vehicle: saline with Tween-80): 115 % of control and 120 % of control
- T/C [10]: 121 % of control

Compound: CCOP(=O)(Nc1c(Cl)cc2c(c1Cl)Cc1cc([N+](=O)[O-])ccc1-2)OCC
- T/C [1]: 92 % of control
- T/C [2]: 88 % of control
- T/C [3]: 88 % of control

Compound: CCCCCCCCCCOc1cc2c(=O)c(C(=O)OCC)c[nH]c2cc1OCC
- T/C [1]: 102 % of control
- T/C [2]: 98 % of control
- T/C [3]: 108 % of control

Compound: CCOC(=O)C(Cc1ccc(N(CCCl)CCCl)cc1)NC(=O)C(CC(C)C)NC(C)=O (stereo not drawn)
- T/C (dose: 3.12 mg/kg/injection, schedule: Q01DX009 (ip), vehicle: Klucel (hydroxypropylcellulose) (HPC)): 162 % of control
- T/C (dose: 5.0 mg/kg/injection, schedule: Q04DX003 (ip), vehicle: water): 105 % of control
- T/C (dose: 6.25 mg/kg/injection, schedule: Q01DX009 (ip), vehicle: Klucel (hydroxypropylcellulose) (HPC)): 172 % of control
- T/C (dose: 10.0 mg/kg/injection, schedule: Q04DX003 (ip), vehicle: water): 107 % of control
- T/C (dose: 12.5 mg/kg/injection, schedule: Q01DX009 (ip), vehicle: Klucel (hydroxypropylcellulose) (HPC)): 241 % of control and 254 % of control
- T/C (dose: 20.0 mg/kg/injection, schedule: Q04DX003 (ip), vehicle: water): 108 % of control
- T/C (dose: 25.0 mg/kg/injection, schedule: Q01DX009 (ip), vehicle: Klucel (hydroxypropylcellulose) (HPC)): 119 % of control
- T/C (dose: 40.0 mg/kg/injection, schedule: Q04DX003 (ip), vehicle: other): 122 % of control
- T/C (dose: 40.0 mg/kg/injection, schedule: Q04DX003 (ip), vehicle: water): 109 % of control
- T/C (dose: 50.0 mg/kg/injection, schedule: Q01DX009 (ip), vehicle: Klucel (hydroxypropylcellulose) (HPC)): 104 % of control and 97 % of control
- T/C (dose: 80.0 mg/kg/injection, schedule: Q04DX003 (ip), vehicle: other): 116 % of control

Compound: COc1cccc2c1C(=O)c1c(O)c3c(c(O)c1C2=O)C[C@@](O)(C(=O)CO)C[C@@H]3OC1CC(N)CC(C)O1 (stereo partly drawn)
- T/C (dose: 0.1 mg/kg/injection, schedule: Q01DX009 (ip), vehicle: water): 157 % of control
- T/C (dose: 0.2 mg/kg/injection, schedule: Q01DX009 (ip), vehicle: water): 154 % of control and 157 % of control
- T/C (dose: 0.32 mg/kg/injection, schedule: Q01DX009 (ip), vehicle: saline): 166 % of control
- T/C (dose: 0.39 mg/kg/injection, schedule: Q01DX009 (ip), vehicle: water): 173 % of control and 186 % of control
- T/C (dose: 0.54 mg/kg/injection, schedule: Q01DX009 (ip), vehicle: saline): 191 % of control
- T/C (dose: 0.78 mg/kg/injection, schedule: Q01DX009 (ip), vehicle: water): 185 % of control and 280 % of control
- T/C (dose: 0.9 mg/kg/injection, schedule: Q01DX009 (ip), vehicle: saline): 314 % of control
- T/C (dose: 1.5 mg/kg/injection, schedule: Q01DX009 (ip), vehicle: saline): 201 % of control
- T/C (dose: 1.56 mg/kg/injection, schedule: Q01DX009 (ip), vehicle: water): 157 % of control and 226 % of control and 89 % of control
- T/C (dose: 1.8 mg/kg/injection, schedule: Q04DX003 (ip), vehicle: saline): 200 % of control
- T/C (dose: 3.0 mg/kg/injection, schedule: Q04DX003 (ip), vehicle: saline): 154 % of control and 275 % of control
- T/C (dose: 3.13 mg/kg/injection, schedule: Q04DX003 (ip), vehicle: water): 158 % of control
- T/C (dose: 12.5 mg/kg/injection, schedule: Q04DX003 (ip), vehicle: water): 103 % of control

Compound: CCc1c(C(=O)OC)c(C(=O)OC)c(-c2ccc(C)cc2)n1CCn1c(CC)c(C(=O)OC)c(C(=O)OC)c1-c1ccc(C)cc1
- T/C [7]: 96 % of control
- T/C [8]: 101 % of control
- T/C [9]: 92 % of control

Compound: COC(=O)c1nc(=S)[nH]c(C(=O)OC)c1C(=O)c1ccc(C)cc1
- T/C [4]: 106 % of control
- T/C [5]: 100 % of control
- T/C [6]: 100 % of control

Compound: CCOC(=O)NC(=Nc1cccc(C(=O)c2ccc3nc(NC(=O)OCC)[nH]c3c2)c1)NC(=O)OCC
- T/C (dose: 15.0 mg/kg/injection, schedule: Q01DX005 (ip), vehicle: saline with Tween-80): 89 % of control
- T/C (dose: 30.0 mg/kg/injection, schedule: Q01DX005 (ip), vehicle: saline with Tween-80): 94 % of control

Compound: COc1cc(NCC(C)(O)CN(CC(C)C)CC(C)C)c2ncccc2c1 (stereo not drawn)
- T/C (dose: 12.5 mg/kg/injection, schedule: Q01DX005 (ip), vehicle: saline): 106 % of control
- T/C (dose: 25.0 mg/kg/injection, schedule: Q01DX005 (ip), vehicle: saline): 106 % of control
- T/C (dose: 50.0 mg/kg/injection, schedule: Q01DX005 (ip), vehicle: saline): 112 % of control and 97 % of control

Compound: NC(=S)N/N=C/c1c(Cl)nc2n1CCS2
- T/C (dose: 100.0 mg/kg/injection, schedule: Q01DX001 (ip), vehicle: Klucel (hydroxypropylcellulose) (HPC)): 94 % of control
- T/C (dose: 200.0 mg/kg/injection, schedule: Q01DX001 (ip), vehicle: Klucel (hydroxypropylcellulose) (HPC)): 93 % of control
- T/C (dose: 400.0 mg/kg/injection, schedule: Q01DX001 (ip), vehicle: Klucel (hydroxypropylcellulose) (HPC)): 92 % of control

Compound: CCC(c1ccc(OC)cc1)C(NCC(=O)N/N=C/c1ccccc1[N+](=O)[O-])c1ccc(OC)cc1 (stereo not drawn)
- T/C (dose: 3.12 mg/kg/injection, schedule: Q01DX001 (ip), vehicle: saline with Tween-80): 94 % of control
- T/C (dose: 6.25 mg/kg/injection, schedule: Q01DX001 (ip), vehicle: saline with Tween-80): 88 % of control
- T/C (dose: 12.5 mg/kg/injection, schedule: Q01DX001 (ip), vehicle: saline with Tween-80): 88 % of control
- T/C (dose: 400.0 mg/kg/injection, schedule: Q01DX001 (ip), vehicle: saline with Tween-80): 96 % of control

Compound: Brc1ccc(Nc2ccccn2)cc1
- T/C (dose: 12.5 mg/kg/injection, schedule: Q01DX009 (ip), vehicle: other): 108 % of control
- T/C (dose: 25.0 mg/kg/injection, schedule: Q01DX009 (ip), vehicle: other): 97 % of control
- T/C (dose: 50.0 mg/kg/injection, schedule: Q01DX009 (ip), vehicle: other): 105 % of control
- T/C (dose: 100.0 mg/kg/injection, schedule: Q01DX009 (ip), vehicle: other): 105 % of control
- T/C (dose: 200.0 mg/kg/injection, schedule: Q01DX009 (ip), vehicle: other): 106 % of control

Compound: CC(=O)NC(CCCCN)C(=O)O (stereo not drawn)
- T/C [1]: 103 % of control
- T/C [2]: 101 % of control
- T/C [3]: 102 % of control

Compound: CC1(C)N=C(N)N=C(N)N1c1ccc(C(C#N)CCCc2ccccc2)cc1 (stereo not drawn)
- T/C (dose: 7.5 mg/kg/injection, schedule: Q01DX005 (ip), vehicle: Klucel (hydroxypropylcellulose) (HPC)): 100 % of control
- T/C (dose: 15.0 mg/kg/injection, schedule: Q01DX005 (ip), vehicle: Klucel (hydroxypropylcellulose) (HPC)): 101 % of control
- T/C (dose: 30.0 mg/kg/injection, schedule: Q01DX005 (ip), vehicle: Klucel (hydroxypropylcellulose) (HPC)): 103 % of control
